A short description of assay [1]: Inhibition of Protein phosphatase 2B. Also on record: species or system Homo sapiens. Conditions: read-out: Ki app.
Assay [2] in a line: The compound was tested for the inhibition of Protein phosphatase-1 (PP1). As to conditions: read-out: Ki app.

The record followed here is ChEMBL document CHEMBL1151051, “Structure-based design of novel calcineurin (PP2B) inhibitors” (Bioorg Med Chem Lett, 1997).

SMILES strings stand for the structures.

In the case of `O=C(CCc1ccccc1)OC[C@H]1C[C@@H]2O[C@H]1[C@H]1C(=O)OC(=O)[C@H]12`, the Ki in assay [1] was determined as 3700 nM.
Still for that read-out and setting: then `O=C(OC[C@H]1C[C@@H]2O[C@H]1[C@H]1C(=O)OC(=O)[C@H]12)c1cccc(Oc2ccccc2)c1`, with 1800 nM.
`O=C(O)[C@@H]1[C@H](C(=O)O)[C@H]2CC[C@@H]1O2` [ENDOTHALL]: the Ki in assay [1] was found to be 11500 nM; in assay [2] it was 4000 nM.
For the compound `O=C(OC[C@H]1C[C@@H]2O[C@H]1[C@H]1C(=O)OC(=O)[C@H]12)c1ccccc1`, the Ki in assay [1] was found to be 11000 nM.
Turning to `O=C(CCCc1ccccc1)OC[C@H]1C[C@@H]2O[C@H]1[C@H]1C(=O)OC(=O)[C@H]12`, the Ki in assay [1] came to 1200 nM.
Turning to `O=C1OC(=O)[C@@H]2[C@H]1[C@@H]1O[C@H]2C[C@@H]1COC(=O)[C@@H]1C[C@H]1c1ccccc1`, the Ki in assay [1] stood at 500 nM; in assay [2], 4000 nM.
For the compound `O=C(OC[C@H]1C[C@@H]2O[C@H]1[C@H]1C(=O)OC(=O)[C@H]12)c1ccc(Oc2ccccc2)cc1`, the Ki in assay [1] turned out to be 1400 nM.
Same read-out and setting: then `O=C(CCCCc1ccccc1)OC[C@H]1C[C@@H]2O[C@H]1[C@H]1C(=O)OC(=O)[C@H]12`, with 2300 nM.
As for `O=C(Cc1ccccc1)OC[C@H]1C[C@@H]2O[C@H]1[C@H]1C(=O)OC(=O)[C@H]12`, in assay [1], the Ki came to 7400 nM.
On the same count and under the same terms, to `O=C(Cc1c[nH]c2ccccc12)OC[C@H]1C[C@@H]2O[C@H]1[C@H]1C(=O)OC(=O)[C@H]12` belongs 2000 nM; to `O=C(CCCC1CCCCC1)OC[C@H]1C[C@@H]2O[C@H]1[C@H]1C(=O)OC(=O)[C@H]12`, 1000 nM.
